Laboratory results published in patent publication US11767330B2, “Citrate salt, pharmaceutical compositions, and methods of making and using the same” (Foghorn Therapeutics Inc., priority 2021, dated 2023).

Experiment: Forced degradation study of compound D1 (HPLC)
Type: physicochemical
Protocol: Sample stock solution was prepared by weighing 60.74 mg of compound D1 to a 100 mL volumetric flask, dissolving by ultrasonic in 50 mL of diluent 2, diluting to volume with diluent 2, and mixing well.
Unstressed sample solution was prepared by weighing 21.32 mg of compound D1 into a 100 mL volumetric flask, dissolving by ultrasonic in 50 mL of diluent 3, diluting to volume with diluent 3, and mixing well.
Sample solution for pH=4.0 solution stability was prepared as follows. 20.96 mg of compound D1 were weighed into a 100 mL volumetric flask, dissolved by ultrasonic in 50 mL of pH=4.0 50 mM sodium citrate buffer, diluted to volume with pH=4.0 50 mM sodium citrate buffer, and mixed well.
Sample solution for pH=5.0 solution stability was prepared as follows. 20.75 mg of compound D were weighed into a 100 mL volumetric flask, dissolved by ultrasonic in 50 mL of pH=5.0 50 mM sodium citrate buffer, diluted to volume with pH=5.0 50 mM sodium citrate buffer, and mixed well.
Sample solution for pH=7.0 solution stability was prepared as follows. 19.91 mg of compound D1 and 684.71 mg KH2PO4 were weighed into a 100 mL volumetric flask, dissolved by ultrasonic in 50 mL of diluent 1, transferred 29.1 mL of 0.1N NaOH into the same volumetric flask, diluted to volume with diluent 1, and mixed well.
Acid degradation (1N HCl at RT). 3 mL of the sample stock solution (see above) were transferred into an 8 mL vial, 3 mL of 2N HCl solution were added, and the resulting mixture was mixed well. Samples were prepared in quadruplicate and kept at RT. At the sampling point, 2 mL of the sample were transferred into an 8 mL vial and neutralized with 1 mL of 2N NaOH.
Samples were prepared in triplicate and kept at RT. […]
Oxidation degradation (3% H2O2 at RT). 3 mL of the sample stock solution (see above) were transferred into an 8 mL vial, 3 mL of 6% H2O2 solution were added, and the resulting mixture was mixed well. Samples were prepared in quadruplicate and kept at RT. At the sampling time point, 2 mL of the solution were transferred into an 8 mL vial, neutralized with 1 mL of diluent 3, and mixed well.
Photolysis degradation (solid). About 60 mg of compound D1 were placed onto a watch glass. Samples were prepared in triplicate and placed in a photo chamber (see Table 8). At the sampling time point, the sample was placed in a vial for analysis. About 20.0±2.0 mg of the sample into a 100 mL volumetric flask, dissolved by ultrasonic in 50 mL of diluent 3, diluted to volume with diluent 3, and mixed well.
Dark control sample: one sample was prepared as described above for this test, but the watch glass was covered with aluminum foil, and processed as described above.
Solid: about 60 mg of compound D1 were weighted into an 8 mL vial. Samples were prepared in triplicate and placed in an oven at 80° C. At the sampling time point, about 20.0±2.0 mg of the sample were weighed into a 100 mL volumetric flask, dissolved by ultrasonic in 50 mL of diluent 3, diluted to volume with diluent 3, and mixed well.
Solution: 3 mL of the sample stock solution (see above) were transferred into an 8 mL vial. Samples were prepared in triplicate and placed them in an oven at 80° C. At the sampling time point, 1 mL of the solution was transferred into an 8 mL vial, neutralized with 2 mL of diluent 3, and mixed well.
Humidity degradation (92% RH for solid). About 60 mg of compound D1 were transferred into a 20 mL vial (without cap). Samples were prepared in triplicate and placed in a desiccator at 92% RH. At the sampling time point, about 20.0±2.0 mg of the sample were transferred into a 100 mL volumetric flask, dissolved by ultrasonic in 50 mL of diluent 3, diluted to volume with diluent 3, and mixed well.
Solution Stability. Samples were prepared tested under the solution stability conditions noted in Table 8. The sampling time points were as noted in Table 8.

[1] = Acid Hydrolysis, 1N HCl RT, 0 h
[2] = Acid Hydrolysis, 1N HCl RT, 1 d
[3] = Acid Hydrolysis, 1N HCl RT, 2 d
[4] = Acid Hydrolysis, 1N HCl RT, 3 d
[5] = Base Hydrolysis, 1N NaOH RT, 0 h
[6] = Base Hydrolysis, 1N NaOH RT, 1 h
[7] = Photolysis, 1.10 W/m^2/25° C. for solid, 13 h
[8] = Photolysis, 1.10 W/m^2/25° C. for solid, 26 h
[9] = Photolysis, 1.10 W/m^2/25° C. for solid, 39 h
[10] = Solution Stability, pH = 4.0, 50 mM Sodium citrate buffer at RT, 0 h
[11] = Solution Stability, pH = 4.0, 50 mM Sodium citrate buffer at RT, 1 d
[12] = Solution Stability, pH = 4.0, 50 mM Sodium citrate buffer at RT, 3 d
[13] = Solution Stability, pH = 4.0, 50 mM Sodium citrate buffer at RT, 7 d
[14] = Solution Stability, pH = 5.0 50 mM Sodium citrate buffer at RT, 0 h
[15] = Solution Stability, pH = 5.0 50 mM Sodium citrate buffer at RT, 1 d
[16] = Solution Stability, pH = 5.0 50 mM Sodium citrate buffer at RT, 3 d
[17] = Solution Stability, pH = 5.0 50 mM Sodium citrate buffer at RT, 7 d
[18] = Solution Stability, pH = 7.0 Phosphate buffer at RT, 0 h
[19] = Solution Stability, pH = 7.0 Phosphate buffer at RT, 1 d
[20] = Solution Stability, pH = 7.0 Phosphate buffer at RT, 2 d

Compound: COc1cc(-c2cn(C)c(=O)c3cnc(N4CCC4)cc23)cc(OC)c1CN1CCC(CN2CCC3(CC2)CN(c2ccc4c(c2)C(=O)N(C2CCC(=O)NC2=O)C4)C3)CC1 (racemic) [Compound D1, 3-[6-(7-[[1-([4-[6-(azetidin-1-yl)-2-methyl-1-oxo-2,7-naphthyridin-4-yl]-2,6-dimethoxyphenyl]methyl)piperidin-4-yl]methyl]-2,7-diazaspiro[3.5]nonan-2-yl)-1-oxo-3H-isoindol-2-yl]piperidine-2,6-dione]
- % Degradation [1]: 0.438%
- % Mass Balance [1]: 108.2%
- Area % [1]: 93.734%
- % Degradation [2]: 4.781%
- % Mass Balance [2]: 106.5%
- Area % [2]: 89.391%
- % Degradation [3]: 8.992%
- % Mass Balance [3]: 107.6%
- Area % [3]: 85.180%
- % Degradation [4]: 12.125%
- % Mass Balance [4]: 106.9%
- Area % [4]: 82.047%
- % Degradation [5]: 25.210%
- % Mass Balance [5]: 104.0%
- Area % [5]: 68.962%
- % Degradation [6]: 76.841%
- % Mass Balance [6]: 98.0%
- Area % [6]: 17.331%
- % Degradation (Humidity, 92% RH, 1 d): 1.245%
- % Mass Balance (Humidity, 92% RH, 1 d): 98.8%
- Area % (Humidity, 92% RH, 1 d): 92.927%
- % Degradation (Humidity, 92% RH, 3 d): 2.091%
- % Mass Balance (Humidity, 92% RH, 3 d): 99.5%
- Area % (Humidity, 92% RH, 3 d): 92.081%
- % Degradation (Humidity, 92% RH, 7 d): 3.282%
- % Mass Balance (Humidity, 92% RH, 7 d): 99.8%
- Area % (Humidity, 92% RH, 7 d): 90.890%
- % Degradation (Oxidation, 3% H2O2 RT, 0 h): 16.184%
- % Mass Balance (Oxidation, 3% H2O2 RT, 0 h): 106.8%
- Area % (Oxidation, 3% H2O2 RT, 0 h): 77.988%
- % Degradation (Oxidation, 3% H2O2 RT, 8 h): 60.417%
- % Mass Balance (Oxidation, 3% H2O2 RT, 8 h): 105.2%
- Area % (Oxidation, 3% H2O2 RT, 8 h): 33.755%
- % Degradation [7]: 3.088%
- % Mass Balance [7]: 101.0%
- Area % [7]: 91.084%
- % Degradation [8]: 3.256%
- % Mass Balance [8]: 92.1%
- Area % [8]: 90.916%
- % Degradation [9]: 3.436%
- % Mass Balance [9]: 105.7%
- Area % [9]: 90.736%
- % Degradation [10]: 0.656%
- % Mass Balance [10]: 90.1%
- Area % [10]: 93.516%
- % Degradation [11]: 0.841%
- % Mass Balance [11]: 93.7%
- Area % [11]: 93.331%
- % Degradation [12]: 1.299%
- % Mass Balance [12]: 93.9%
- Area % [12]: 92.873%
- % Degradation [13]: 2.042%
- % Mass Balance [13]: 93.7%
- Area % [13]: 92.130%
- % Degradation [14]: 1.674%
- % Mass Balance [14]: 95.3%
- Area % [14]: 92.498%
- % Degradation [15]: 1.922%
- % Mass Balance [15]: 103.1%
- Area % [15]: 92.250%
- % Degradation [16]: 2.133%
- % Mass Balance [16]: 100.0%
- Area % [16]: 92.039%
- % Degradation [17]: 4.658%
- % Mass Balance [17]: 100.8%
- Area % [17]: 89.514%
- % Degradation [18]: 1.534%
- % Mass Balance [18]: 97.1%
- Area % [18]: 92.638%
- % Degradation [19]: 8.920%
- % Mass Balance [19]: 102.6%
- Area % [19]: 85.252%
- % Degradation [20]: 15.170%
- % Mass Balance [20]: 100.6%
- Area % [20]: 79.002%
- % Degradation (Thermal, 80° C., Solid, 1 d): 0.724%
- % Mass Balance (Thermal, 80° C., Solid, 1 d): 105.7%
- Area % (Thermal, 80° C., Solid, 1 d): 93.448%
- % Degradation (Thermal, 80° C., Solid, 3 d): 0.978%
- % Mass Balance (Thermal, 80° C., Solid, 3 d): 97.6%
- Area % (Thermal, 80° C., Solid, 3 d): 93.194%
- % Degradation (Thermal, 80° C., Solid, 7 d): 11.980%
- % Mass Balance (Thermal, 80° C., Solid, 7 d): 92.7%
- Area % (Thermal, 80° C., Solid, 7 d): 82.192%
- % Degradation (Thermal, 80° C., Solution, 1 d): 0.119%
- % Mass Balance (Thermal, 80° C., Solution, 1 d): 100.5%
- Area % (Thermal, 80° C., Solution, 1 d): 94.053%
- % Degradation (Thermal, 80° C., Solution, 7 d): 62.235%
- % Mass Balance (Thermal, 80° C., Solution, 7 d): 104.2%
- Area % (Thermal, 80° C., Solution, 7 d): 31.937%
- Area % (Unstressed): 94.172%
